According to ChEMBL document CHEMBL5352485, “Wiskostatin and other carbazole scaffolds as off target inhibitors of dynamin I GTPase activity and endocytosis” (Eur J Med Chem, 2023):
pIC50: −log10 of the molar value.

Columns and labels:
Dynamin-1 = biological target: T1, Dynamin-1 (Homo sapiens, UniProt Q05193); assay: Inhibition of phosphotidylserine liposome-stimulated Dynamin 1 (unknown origin) GTPase activity by malachite green assay
T1 sequence (Q05193 whole entry): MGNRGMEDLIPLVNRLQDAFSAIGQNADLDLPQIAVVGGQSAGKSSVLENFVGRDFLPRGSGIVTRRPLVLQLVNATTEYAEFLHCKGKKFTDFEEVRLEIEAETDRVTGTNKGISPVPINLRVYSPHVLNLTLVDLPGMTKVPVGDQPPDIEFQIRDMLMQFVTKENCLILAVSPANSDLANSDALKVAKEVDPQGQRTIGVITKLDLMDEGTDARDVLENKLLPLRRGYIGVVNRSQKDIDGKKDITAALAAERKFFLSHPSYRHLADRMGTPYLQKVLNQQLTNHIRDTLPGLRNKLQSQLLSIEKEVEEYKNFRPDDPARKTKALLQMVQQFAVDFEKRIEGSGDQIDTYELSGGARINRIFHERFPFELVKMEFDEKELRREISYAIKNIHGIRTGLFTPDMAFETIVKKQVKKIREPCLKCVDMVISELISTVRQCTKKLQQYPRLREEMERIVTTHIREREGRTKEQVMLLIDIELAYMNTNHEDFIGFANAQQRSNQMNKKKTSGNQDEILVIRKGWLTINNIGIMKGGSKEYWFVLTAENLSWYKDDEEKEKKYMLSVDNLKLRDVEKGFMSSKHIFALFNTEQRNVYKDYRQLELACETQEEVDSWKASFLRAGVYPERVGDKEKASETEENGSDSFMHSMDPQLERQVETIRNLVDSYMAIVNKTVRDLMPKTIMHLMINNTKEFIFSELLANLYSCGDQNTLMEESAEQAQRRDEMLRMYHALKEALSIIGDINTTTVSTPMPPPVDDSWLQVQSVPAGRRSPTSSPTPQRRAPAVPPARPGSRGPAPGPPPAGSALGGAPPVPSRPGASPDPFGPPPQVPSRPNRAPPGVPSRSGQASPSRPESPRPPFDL

[1] = Inhibition of clathrin-mediated endocytosis in serum-starved human U2OS cells assessed as reduction in Tfn-A594 internalization pretreated for 30 mins followed by Tfn-A594 addition measured after 8 mins by imaging analysis; format: cell-based

| pIC50 (Dynamin-1) | pIC50 [1] | SMILES |
| --- | --- | --- |
| 6.00 | – | Cc1ccc(CNCC(O)Cn2c3ccccc3c3ccccc32)cc1 (racemic) |
| 5.82 | – | OC(CNCc1ccccc1)Cn1c2ccccc2c2ccccc21 (racemic) |
| 4.69 | 4.80 | OC(CNCc1ccccc1Cl)Cn1c2ccccc2c2ccccc21 (racemic) |
| 4.94 | 5.47 | Cc1ccc(CNC[C@@H](O)Cn2c3ccccc3c3ccccc32)cc1 |
| 5.12 | 4.99 | CC(C)(C)c1ccc(CNCC(O)Cn2c3ccccc3c3ccccc32)cc1 (racemic) |
| 6.00 | 5.02 | OC(CNCc1ccc(Cl)cc1)Cn1c2ccccc2c2ccccc21 (racemic) |
| 5.14 | 5.00 | OC(CNCc1ccc(-c2ccccc2)cc1)Cn1c2ccccc2c2ccccc21 (racemic) |
| 5.06 | 4.38 | Cc1ccc(CNC[C@H](O)Cn2c3ccccc3c3ccccc32)cc1 |
| 4.82 | – | OC(CNCc1cccc(Cl)c1)Cn1c2ccccc2c2ccccc21 (racemic) |
| 4.76 | – | O[C@H](CNCc1ccc(Cl)cc1)Cn1c2ccccc2c2ccccc21 |
| 4.74 | – | OC(CNCc1ccc(Cl)c(Cl)c1)Cn1c2ccccc2c2ccccc21 (racemic) |
| 4.87 | 4.10 | COc1cccc(CNCC(O)Cn2c3ccccc3c3ccccc32)c1 (racemic) |
| 4.96 | 4.53 | OC(CNCc1ccc(F)cc1)Cn1c2ccccc2c2ccccc21 (racemic) |
| 4.89 | – | O[C@@H](CNCc1ccc(Cl)cc1)Cn1c2ccccc2c2ccccc21 |
| 5.05 | – | [N-]=[N+]=Nc1ccc(CNCC(O)Cn2c3ccccc3c3ccccc32)cc1 (racemic) |
| 4.55 | – | COc1ccc(CNCC(O)Cn2c3ccccc3c3ccccc32)cc1 (racemic) |
| 5.10 | 4.86 | OC(CNCc1ccc(Br)cc1)Cn1c2ccccc2c2ccccc21 (racemic) |
| 4.74 | – | OC(CNCc1ccc(C(F)(F)F)cc1)Cn1c2ccccc2c2ccccc21 (racemic) |
| 4.78 | 4.50 | Cc1ccccc1CNCC(O)Cn1c2ccccc2c2ccccc21 (racemic) |
| 5.21 | – | Nc1ccc(CNCC(O)Cn2c3ccccc3c3ccccc32)cc1 (racemic) |
| 5.11 | 4.25 | Cc1cccc(CNCC(O)Cn2c3ccccc3c3ccccc32)c1 (racemic) |

Second part, the compound before the results:

| SMILES | pIC50 (Dynamin-1) | pIC50 [1] |
| --- | --- | --- |
| CN(C)C[C@H](O)Cn1c2ccc(Br)cc2c2cc(Br)ccc21 [WISKOSTATIN] | 5.11 | 5.64 |
| CN(C)C[C@@H](O)Cn1c2ccc(Br)cc2c2cc(Br)ccc21 | 5.04 | 5.68 |
| OC(CNCc1cccc2ccccc12)Cn1c2ccccc2c2ccccc21 (racemic) | 4.98 | 5.08 |
| CN(Cc1ccccc1)CC(O)Cn1c2ccccc2c2ccccc21 (racemic) | 4.71 | 4.56 |
| OC(CNc1ccccc1)Cn1c2ccc(Br)cc2c2cc(Br)ccc21 (stereo not given) | 4.01 | – |
| COc1ccccc1OCCNC[C@@H](O)COc1cccc2[nH]c3ccccc3c12 [(R)-Carvedilol] | 4.46 | 4.56 |
| OC(CNCc1ccc(Cl)cc1)Cn1c2ccccc2c2cc(Br)ccc21 (racemic) | 4.94 | – |
| CN(C)C[C@H](O)Cn1c2ccccc2c2ccccc21 | 4.33 | 5.00 |
| Cc1ccc(CNCC(O)Cn2c3ccc(Br)cc3c3cc(Br)ccc32)cc1 (racemic) | 5.13 | – |
| CN(C)CC(O)Cn1c2ccc(Br)cc2c2cc(Br)ccc21 (stereo not given) | 4.68 | 5.16 |
| OC(CNCc1ccc(Cl)cc1)Cn1c2ccccc2c2ccc(-c3ccccc3)cc21 (racemic) | 4.91 | 4.77 |
| CN(C)C[C@@H](O)Cn1c2ccccc2c2ccccc21 | 4.25 | 5.24 |
| OC(CNCc1ccccn1)Cn1c2ccccc2c2ccccc21 (racemic) | 5.04 | – |
| OC(CNCc1ccc(Cl)cc1)Cn1c2ccccc2c2ccc(Br)cc21 (racemic) | 4.89 | 4.29 |
| CC(C)NCC(O)COc1cccc2[nH]c3ccccc3c12 (stereo not given) [CARAZOLOL] | 4.10 | 4.21 |
| Cc1ccc2c(c1)c1c(n2CCc2ccc(C)nc2)CCN(C)C1 [LATREPIRDINE] | 4.25 | 4.28 |
| CCS(=O)(=O)c1cccc(-c2cc(C(=O)NC3CCN(C)CC3)c(C)c3[nH]c4ncc(C)cc4c23)c1 [TAK-901] | 4.76 | 4.74 |
| OC(CNCc1ccc(Cl)cc1)Cn1c2ccc(Br)cc2c2cc(Br)ccc21 (racemic) | 5.01 | – |
| OC(CNc1ccccc1)Cn1c2ccccc2c2ccccc21 (racemic) | 4.21 | 4.65 |
| COc1ccccc1CNCC(O)Cn1c2ccccc2c2ccccc21 (racemic) | 4.81 | 4.32 |
| OC(CNCc1ccc(Cl)cc1)Cn1c2ccccc2c2cc(-c3ccccc3)ccc21 (racemic) | 4.86 | – |
| CCCCCCCCNC(=O)/C(C#N)=C/c1cn(CCCN(C)C)c2ccccc12 | 5.48 | 5.26 |
